Test results: ChEMBL document CHEMBL5131525, “Novel CFTR Modulators for Treating Cystic Fibrosis” (ACS Med Chem Lett, 2022)
pEC50: −log10 of the molar value.

What follows are molecules tested against Cystic fibrosis transmembrane conductance regulator (Homo sapiens, UniProt P13569, F508DEL) (assay: Modulation of CFTR F508 deletion mutant expressed in HBE cells assessed as change in short circuit current incubated for 18 to 24 hrs in presence of forskolin, amiloride and human serum by voltage-clamp based chamber assay).
Chain of Cystic fibrosis transmembrane conductance regulator (P13569 as listed by the source): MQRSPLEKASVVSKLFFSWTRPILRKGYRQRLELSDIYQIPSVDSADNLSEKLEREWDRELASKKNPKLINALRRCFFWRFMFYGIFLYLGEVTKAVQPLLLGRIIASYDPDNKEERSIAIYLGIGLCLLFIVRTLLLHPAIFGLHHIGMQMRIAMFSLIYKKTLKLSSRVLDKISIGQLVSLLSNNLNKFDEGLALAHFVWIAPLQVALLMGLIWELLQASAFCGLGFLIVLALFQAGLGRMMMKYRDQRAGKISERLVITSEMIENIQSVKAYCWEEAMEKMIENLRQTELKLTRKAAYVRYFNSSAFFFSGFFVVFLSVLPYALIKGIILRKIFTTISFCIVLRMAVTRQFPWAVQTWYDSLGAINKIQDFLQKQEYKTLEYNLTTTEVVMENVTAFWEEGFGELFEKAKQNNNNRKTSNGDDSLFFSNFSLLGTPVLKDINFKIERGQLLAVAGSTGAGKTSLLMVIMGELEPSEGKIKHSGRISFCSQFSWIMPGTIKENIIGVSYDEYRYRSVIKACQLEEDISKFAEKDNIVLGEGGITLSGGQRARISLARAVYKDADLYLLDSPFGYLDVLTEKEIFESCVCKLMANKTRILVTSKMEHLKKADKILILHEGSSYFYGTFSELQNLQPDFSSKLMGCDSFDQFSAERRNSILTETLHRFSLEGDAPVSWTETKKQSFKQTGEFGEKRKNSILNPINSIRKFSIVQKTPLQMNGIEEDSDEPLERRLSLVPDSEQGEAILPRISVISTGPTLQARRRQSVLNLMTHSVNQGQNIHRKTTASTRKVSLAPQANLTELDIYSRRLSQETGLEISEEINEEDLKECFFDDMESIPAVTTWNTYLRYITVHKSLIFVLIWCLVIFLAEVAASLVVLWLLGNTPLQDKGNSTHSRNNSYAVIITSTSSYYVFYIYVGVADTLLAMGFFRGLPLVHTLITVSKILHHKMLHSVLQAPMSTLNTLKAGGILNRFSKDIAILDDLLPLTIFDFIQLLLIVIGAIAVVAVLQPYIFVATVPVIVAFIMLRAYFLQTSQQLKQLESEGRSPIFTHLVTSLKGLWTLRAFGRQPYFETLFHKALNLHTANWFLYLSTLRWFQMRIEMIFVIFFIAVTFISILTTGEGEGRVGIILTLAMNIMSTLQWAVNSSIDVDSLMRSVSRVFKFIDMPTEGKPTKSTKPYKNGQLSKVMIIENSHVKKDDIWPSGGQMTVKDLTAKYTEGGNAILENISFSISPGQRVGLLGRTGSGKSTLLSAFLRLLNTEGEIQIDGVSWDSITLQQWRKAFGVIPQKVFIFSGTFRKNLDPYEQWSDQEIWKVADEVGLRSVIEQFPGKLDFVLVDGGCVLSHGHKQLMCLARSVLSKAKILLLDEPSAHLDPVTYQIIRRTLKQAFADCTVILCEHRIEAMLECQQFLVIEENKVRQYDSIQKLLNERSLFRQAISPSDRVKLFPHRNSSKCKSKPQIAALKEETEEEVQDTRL
Assay type: cell-based

pEC50 | Compound
> 6.30 | C[C@H]1CCCCC[C@](O)(C(F)(F)F)C2=NN=C(O2)c2nc(c(C(F)(F)F)cc2N)O1
> 6.30 | Nc1cc(C(F)(F)F)c2nc1-c1nnc(o1)[C@@](O)(C(F)(F)F)CCCCCCS2
> 6.30 | [2H]C1CC[C@@H](C)Oc2nc(c(N)cc2C(F)(F)F)C2=NN=C(O2)[C@@](O)(C(F)(F)F)CC1[2H] (stereo partly specified)
> 6.30 | CC1(C)CCCC[C@](O)(C(F)(F)F)C2=NN=C(O2)c2nc(c(C(F)(F)F)cc2N)OC1
> 6.30 | Nc1cc(C(F)(F)F)c2nc1-c1nnc(o1)C(O)(C(F)(F)F)CCCCCCO2 (stereo unspecified)
> 6.30 | Nc1cc(C(F)(F)F)c2nc1-c1nnc(o1)[C@@](O)(C(F)(F)F)CCCCC[C@H](CO)O2
